Test results from patent US20090048301A1 (IMCLONE SYSTEMS INCORPORATED, priority 2003, published 2009).

system: bovine tubulin; test: In vitro tubulin polymerization assay (turbidity at 340 nm); type: biochemical; settings: 10 μM compound, 30 minute data point, vs 1% DMSO control
In short: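 Percent inhibition derives from turbidity (340 nm) at 30 min relative to 1% DMSO controls, read every minute at 37° C. Polymerization mix: 3 mg/ml bovine tubulin, <3% MAPs, in PIPES pH 7 G-PEM with 1 mM GTP, 1 mM MgCl2, 5% glycerol; enhancers also detectable.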

Compared with `COc1cc(CNc2ccccc2-c2nnc(-c3ccc(C(F)(F)F)cc3)[nH]2)cc(OC)c1` [Compound 140, (3,5-Dimethoxy-benzyl)-{2-[5-(4-trifluoromethyl-phenyl)-4H-[1,2,4]triazol-3-yl]-phenyl}-amine], `COc1cc(CNc2ccccc2-c2nnc(-c3cccc(OC(F)(F)F)c3)[nH]2)cc(OC)c1` [Compound 143, (3,5-Dimethoxy-benzyl)-{2-[5-(3-trifluoromethoxy-phenyl)-4H-[1,2,4]triazol-3-yl]-phenyl}-amine] is higher in “Tubulin Assay: percent inhibition at 10 μM based on 30 minute data” value (“Tubulin Assay: percent inhibition” for short): 20% for the first, 46% for the second.

Going from `FC(F)(F)Oc1cccc(-c2nnc(-c3ccccc3NCc3ccc4c(c3)OCCO4)[nH]2)c1` [Compound 142, (2,3-Dihydro-benzo[1,4]dioxin-6-ylmethyl)-{2-[5-(3-trifluoromethoxy-phenyl)-4H-[1,2,4]triazol-3-yl]-phenyl}-amine] to `FC(F)(F)c1cccc(-c2nnc(-c3ccccc3NCc3ccc4c(c3)OCCO4)[nH]2)c1` [Compound 150, (2,3-Dihydro-benzo[1,4]dioxin-6-ylmethyl)-{2-[5-(3-trifluoromethyl-phenyl)-4H-[1,2,4]triazol-3-yl]-phenyl}-amine], the “Tubulin Assay: percent inhibition” value rises from 20% to 24%.

First: FC(F)(F)Oc1cccc(-c2nnc(-c3ccccc3NCc3ccc4[nH]cnc4c3)[nH]2)c1 [Compound 144, (1H-Benzoimidazol-5-ylmethyl)-{2-[5-(3-trifluoromethoxy-phenyl)-4H-[1,2,4]triazol-3-yl]-phenyl}-amine]
Second: Brc1ccc(-c2nnc(-c3ccccc3NCc3ccc4[nH]cnc4c3)[nH]2)cc1 [Compound 147, (1H-Benzoimidazol-5-ylmethyl)-{2-[5-(4-bromo-phenyl)-4H-[1,2,4]triazol-3-yl]-phenyl}-amine]
The “Tubulin Assay: percent inhibition” value of the first is higher: 86% for the first, 43% for the second.

Compared with `Brc1ccc(-c2nnc(-c3ccccc3NCc3ccc4cn[nH]c4c3)[nH]2)cc1` [Compound 146, {2-[5-(4-Bromo-phenyl)-4H-[1,2,4]triazol-3-yl]-phenyl}-(1H-indazol-6-ylmethyl)-amine], `COc1cccc(-c2nnc(-c3ccccc3NCc3ccc4cn[nH]c4c3)[nH]2)c1` [Compound 149, (1H-Indazol-6-ylmethyl)-{2-[5-(3-methoxy-phenyl)-4H-[1,2,4]triazol-3-yl]-phenyl}-amine] is lower in “Tubulin Assay: percent inhibition” value: 39% for the first, 26% for the second.

First: COc1cc(CNc2ccccc2-c2nnc(-c3cccc(Br)c3)[nH]2)cc(OC)c1 [Compound 151, {2-[5-(3-Bromo-phenyl)-4H-[1,2,4]triazol-3-yl]-phenyl}-(3,5-dimethoxy-benzyl)-amine]
Second: FC(F)(F)c1cccc(-c2nnc(-c3ccccc3NCc3ccc4c(c3)OCO4)[nH]2)c1 [Compound 152, Benzo[1,3]dioxol-5-ylmethyl-{2-[5-(3-trifluoromethyl-phenyl)-4H-[1,2,4]triazol-3-yl]-phenyl}-amine]
The “Tubulin Assay: percent inhibition” value of the first is lower: 42% for the first, 73% for the second.

Going from `CS(=O)(=O)c1ccc(-c2nnc(-c3ccc(C(F)(F)F)cc3NCc3ccncc3)[nH]2)cc1` [Compound 153, {2-[5-(4-Methanesulfonyl-phenyl)-4H-[1,2,4]triazol-3-yl]-5-trifluoromethyl-phenyl}-pyridin-4-ylmethyl-amine] to `CS(=O)(=O)c1ccc(-c2nnc(-c3cccnc3NCc3ccc(F)cc3)o2)cc1` [Compound 212, (4-Fluoro-benzyl)-{3-[5-(4-methanesulfonyl-phenyl)-[1,3,4]oxadiazol-2-yl]-pyridin-2-yl}-amine], the “Tubulin Assay: percent inhibition” value falls from 54% to 38%.

Going from `COc1ccc(CNc2ncccc2-c2nnc(Nc3ccc4c(c3)OCO4)o2)cc1OC` [Compound 158, {3-[5-(Benzo[1,3]dioxol-5-ylamino)-[1,3,4]oxadiazol-2-yl]-pyridin-2-yl}-(3,4-dimethoxy-benzyl)-amine] to `Fc1cccc(CNc2ncccc2-c2nnc(Nc3ccc4c(c3)OCO4)o2)c1` [Compound 171, {3-[5-(Benzo[1,3]dioxol-5-ylamino)-[1,3,4]oxadiazol-2-yl]-pyridin-2-yl}-(3-fluoro-benzyl)-amine], the “Tubulin Assay: percent inhibition” value rises from 90% to 91%.

First: COc1cc(Nc2nnc(-c3cccnc3NCc3ccc(F)c(F)c3)o2)cc(OC)c1OC [Compound 167, (3,4-Difluoro-benzyl)-{3-[5-(3,4,5-trimethoxy-phenylamino)-[1,3,4]oxadiazol-2-yl]-pyridin-2-yl}-amine]
Second: COc1ccc(CNc2ncccc2-c2nnc(Nc3cc(OC)c(OC)c(OC)c3)o2)cc1 [Compound 188, (4-Methoxy-benzyl)-{3-[5-(3,4,5-trimethoxy-phenylamino)-[1,3,4]oxadiazol-2-yl]-pyridin-2-yl}-amine]
The “Tubulin Assay: percent inhibition” value of the first is higher: 99% for the first, 56% for the second.

Going from `c1cnc(NCC2CCCO2)c(-c2nnc(Nc3ccc4c(c3)OCO4)o2)c1` (stereo not drawn) [Compound 174, {3-[5-(Benzo[1,3]dioxol-5-ylamino)-[1,3,4]oxadiazol-2-yl]-pyridin-2-yl}-(tetrahydro-furan-2-ylmethyl)-amine] to `c1cncc(CCNc2ncccc2-c2nnc(Nc3ccc4c(c3)OCO4)o2)c1` [Compound 200, {3-[5-(Benzo[1,3]dioxol-5-ylamino)-[1,3,4]oxadiazol-2-yl]-pyridin-2-yl}-(2-pyridin-3-yl-ethyl)-amine], the “Tubulin Assay: percent inhibition” value rises from 64% to 68%.

Going from `COc1cc(CNc2ncccc2-c2nnc(Nc3cccc(F)c3)o2)cc(OC)c1` [Compound 184, (3,5-Dimethoxy-benzyl)-{3-[5-(3-fluoro-phenylamino)-[1,3,4]oxadiazol-2-yl]-pyridin-2-yl}-amine] to `COc1cc(Nc2ncccc2-c2nnc(-c3ccc(S(C)(=O)=O)cc3)o2)cc(OC)c1` [Compound 213, (3,5-Dimethoxy-phenyl)-{3-[5-(4-methanesulfonyl-phenyl)-[1,3,4]oxadiazol-2-yl]-pyridin-2-yl}-amine], the “Tubulin Assay: percent inhibition” value rises from 23% to 30%.

Going from `NS(=O)(=O)c1cccc(Nc2ncccc2-c2nnc(Nc3ccc4c(c3)OCCO4)o2)c1` [Compound 191, 3-{3-[5-(2,3-Dihydro-benzo[1,4]dioxin-6-ylamino)-[1,3,4]oxadiazol-2-yl]-pyridin-2-ylamino}-benzenesulfonamide] to `c1cncc(CCNc2ncccc2-c2nnc(Nc3ccc4c(c3)OCCO4)o2)c1` [Compound 201, {3-[5-(2,3-Dihydro-benzo[1,4]dioxin-6-ylamino)-[1,3,4]oxadiazol-2-yl]-pyridin-2-yl}-(2-pyridin-3-yl-ethyl)-amine], the “Tubulin Assay: percent inhibition” value falls from 28% to 23%.

First: COc1cc(Nc2nnc(-c3cccnc3NCCc3cccnc3)o2)cc(OC)c1OC [Compound 204, (2-Pyridin-3-yl-ethyl)-{3-[5-(3,4,5-trimethoxy-phenylamino)-[1,3,4]oxadiazol-2-yl]-pyridin-2-yl}-amine]
Second: CN(C)c1ccc(-c2nnc(Nc3ccc4c(c3)OCCO4)o2)c(NCc2cccnc2)c1 [Compound 229, (2,3-Dihydro-benzo[1,4]dioxin-6-yl)-(5-{4-dimethylamino-2-[(pyridin-3-ylmethyl)-amino]-phenyl}-[1,3,4]oxadiazol-2-yl)-amine]
The “Tubulin Assay: percent inhibition” value of the first is lower: 28% for the first, 32% for the second.

Going from `c1cnc(OCc2ccc3c(c2)OCO3)c(-c2nnc(Nc3ccc4c(c3)OCO4)o2)c1` [Compound 208, Benzo[1,3]dioxol-5-yl-{5-[2-(benzo[1,3]dioxol-5-ylmethoxy)-pyridin-3-yl]-[1,3,4]oxadiazol-2-yl}-amine] to `c1ccc(-c2nnc(Nc3ccc4c(c3)OCCO4)o2)c(NCc2ccc3ncccc3c2)c1` [Compound 227, (2,3-Dihydro-benzo[1,4]dioxin-6-yl)-(5-{2-[(quinolin-6-ylmethyl)-amino]-phenyl}-[1,3,4]oxadiazol-2-yl)-amine], the “Tubulin Assay: percent inhibition” value rises from 44% to 99%.

Going from `Brc1cnn(-c2ncccc2-c2nnc(Nc3ccc4c(c3)OCCO4)o2)c1` [Compound 211, {5-[2-(4-Bromo-pyrazol-1-yl)-pyridin-3-yl]-[1,3,4]oxadiazol-2-yl}-(2,3-dihydro-benzo[1,4]dioxin-6-yl)-amine] to `c1ccc(-c2nnc(Nc3ccc4c(c3)OCCO4)o2)c(NCc2cnccn2)c1` [Compound 221], the “Tubulin Assay: percent inhibition” value rises from 73% to 80%.

Compared with `CS(=O)(=O)c1ccc(-c2nnc(-c3cccnc3NCc3cccc(F)c3)o2)cc1` [Compound 214, (3-Fluoro-benzyl)-{3-[5-(4-methanesulfonyl-phenyl)-[1,3,4]oxadiazol-2-yl]-pyridin-2-yl}-amine], `c1ccc(-c2nnc(Nc3ccc4c(c3)OCCO4)o2)c(NCc2ccc3[nH]ncc3c2)c1` [Compound 222, (2,3-Dihydro-benzo[1,4]dioxin-6-yl)-(5-{2-[(1H-indazol-5-ylmethyl)-amino]-phenyl}-[1,3,4]oxadiazol-2-yl)-amine] is higher in “Tubulin Assay: percent inhibition” value: 52% for the first, 95% for the second.

Compared with `c1ccc(-c2nnc(Nc3ccc4c(c3)OCCO4)o2)c(NCc2ncc[nH]2)c1` [Compound 220, (2,3-Dihydro-benzo[1,4]dioxin-6-yl)-(5-{2-[(1H-imidazol-2-ylmethyl)-amino]-phenyl}-[1,3,4]oxadiazol-2-yl)-amine], `c1ccc(-c2nnc(Nc3ccc4c(c3)OCCO4)o2)c(NCc2cncnc2)c1` [Compound 226, (2,3-Dihydro-benzo[1,4]dioxin-6-yl)-(5-{2-[(pyrimidin-5-ylmethyl)-amino]-phenyl}-[1,3,4]oxadiazol-2-yl)-amine] is higher in “Tubulin Assay: percent inhibition” value: 79% for the first, 94% for the second.

For `CN(C)c1ccc(-c2nnc(Nc3ccc4c(c3)OCCO4)o2)c(NCc2ccccn2)c1` [Compound 230, (2,3-Dihydro-benzo[1,4]dioxin-6-yl)-(5-{4-dimethylamino-2-[(pyridin-2-ylmethyl)-amino]-phenyl}-[1,3,4]oxadiazol-2-yl)-amine], the “Tubulin Assay: percent inhibition” value was 45%.
